Source: the NIST ThermoML archive (doi:10.1021/acs.jced.6b00273)

Experiment: mn = molality of the nth substance listed, in mol/kg
Settings: 101.33 kPa, Liquid; for viscosity: Capillary tube (Ostwald / Ubbelohde) method; for mass density: Vibrating tube method

Cn1cnc2c1c(=O)[nH]c(=O)n2C [1H-purine-2,6-dione, 3,7-dihydro-3,7-dimethyl-] + O
Settings	mass density, 288.15 K [kg/m3]	mass density, 298.15 K [kg/m3]	mass density, 308.15 K [kg/m3]	mass density, 318.15 K [kg/m3]	viscosity, 288.15 K [mPa·s]	viscosity, 298.15 K [mPa·s]	viscosity, 308.15 K [mPa·s]	viscosity, 318.15 K [mPa·s]
m1 = 0.00051	999.157	997.073	994.088	990.268	1.138	0.891	0.72	0.597
m1 = 0.0007	999.167	997.083	994.097	990.277	1.139	0.891	0.72	0.597
m1 = 0.0009	999.177	997.093	994.107	990.287	1.139	0.891	0.72	0.597
m1 = 0.00098	999.182	997.097	994.111	990.291	1.139	0.891	0.72	0.597
m1 = 0.00123	999.195	997.11	994.123	990.303	1.139	0.891	0.72	0.597
m1 = 0.00147	–	–	–	–	1.139	0.891	0.72	0.597
m1 = 0.00148	999.209	997.123	994.135	990.314	–	–	–	–
m1 = 0.00182	–	–	–	–	1.139	0.891	0.72	0.597
m1 = 0.00183	999.228	997.141	994.152	990.331	–	–	–	–
m1 = 0.00212	–	–	–	–	1.139	0.891	0.72	0.597
m1 = 0.00213	999.244	997.156	994.167	990.346	–	–	–	–

[Cl-].[Na+] [sodium chloride] + O
Settings	mass density, m1 = 0.1 [kg/m3]	mass density, m1 = 0.25 [kg/m3]	mass density, m1 = 0.5 [kg/m3]	mass density, m1 = 0.75 [kg/m3]	mass density, m1 = 1 [kg/m3]	viscosity, m1 = 0.1 [mPa·s]	viscosity, m1 = 0.25 [mPa·s]	viscosity, m1 = 0.5 [mPa·s]	viscosity, m1 = 0.75 [mPa·s]	viscosity, m1 = 1 [mPa·s]
288.15 K	1003.33	1009.78	–	1029.45	1039.16	1.15	1.16	1.178	1.214	1.254
298.15 K	1001.12	1007.29	–	1026.12	1036.18	0.901	0.91	0.932	0.959	0.991
308.15 K	998.046	1003.48	–	1023.12	1032.47	0.728	0.74	0.756	0.78	0.812
318.15 K	994.175	999.875	1009.78	1018.94	1028.31	0.605	0.61	0.63	0.65	0.676
